This data set has as its system upper respiratory mucosa. Kind of data set: Safety tests of topical ascorbate (spray, lozenge) on upper respiratory mucosa. Conditions: Three ml oral/nasal spray in sterile water three times daily for six months.

The results in this text go back to US20120141467A1, “Ascorbic acid to treat chronic obstructive lung diseases and non-Hodgkin's lymphoma” (priority 2010, published 2012).

Text: Initiation of the test sought first to assure that the designed aerosol would be safely tolerated by the IC's respiratory mucosa.

Take `O=C1O[C@H]([C@@H](O)CO)C(O)=C1O` [ascorbate]: the “Adverse effects of spray on upper respiratory mucosa” value is recorded as “no adverse effects”.
